Results reported in patent publication US11820766B2, “Monoacylglycerol lipase modulators” (Janssen Pharmaceutica NV, priority 2018, dated 2023).

Biological target: T1, human MGL from HeLa cells (Homo sapiens, UniProt Q99685)
T1 construct: combining endogenously expressed MGL from HeLa cells with test compounds; endogenous in cells; host or cells: HeLa cells / cell homogenates
T1 sequence (Q99685 1-303): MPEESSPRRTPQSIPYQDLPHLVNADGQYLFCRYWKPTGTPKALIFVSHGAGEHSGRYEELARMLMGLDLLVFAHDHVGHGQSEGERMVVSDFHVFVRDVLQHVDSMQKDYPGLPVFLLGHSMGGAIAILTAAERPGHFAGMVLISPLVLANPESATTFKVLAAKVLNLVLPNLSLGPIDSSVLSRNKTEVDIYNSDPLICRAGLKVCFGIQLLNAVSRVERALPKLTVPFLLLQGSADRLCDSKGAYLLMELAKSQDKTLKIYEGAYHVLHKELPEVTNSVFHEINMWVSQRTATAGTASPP
Experiment: In vitro MGL activity assay: [glycerol-1,3-3H]-oleyl glycerol cleavage by MGL from HeLa cells
Format: biochemical
Conditions: 300 nM [Glycerol-1,3-3H]-oleyl glycerol, one hour
Excerpt: MGL is the predominant hydrolase in HeLa cells/cell homogenates.

| Structure (SMILES) | IC50 [nM] |
| --- | --- |
| COc1ncc(-c2c3c(nn2C)[C@H](C)N(C(=O)c2ccc4ncccc4c2)CC3)cc1C [Example 529, [(7S)-3-(6-Methoxy-5-methyl-3-pyridyl)-2,7-dimethyl-5,7-dihydro-4H-pyrazolo[3,4-c]pyridin-6-yl]-(6-quinolyl)methanone] | 320 |
| Cc1nc2cccnn2c1C(=O)N1CCc2c(nn(C)c2-c2cc(F)c(F)c(F)c2)[C@@H]1C [Example 455, [(7S)-2,7-Dimethyl-3-(3,4,5-trifluorophenyl)-5,7-dihydro-4H-pyrazolo[3,4-c]pyridin-6-yl]-(2-methylimidazo[1,2-b]pyridazin-3-yl)methanone] | 23.2 |
| C[C@H]1c2nn(C)c(-c3cccc4nonc34)c2CCN1C(=O)c1ccc2ncccc2c1 [Example 538, [(7S)-3-(2,1,3-Benzoxadiazol-4-yl)-2,7-dimethyl-5,7-dihydro-4H-pyrazolo[3,4-c]pyridin-6-yl]-(6-quinolyl)methanone] | 72.6 |
| C[C@H]1c2nn(C)c(-c3cc(F)c(F)c(F)c3)c2CCN1C(=O)c1cn(C)nc1C1(F)CC1 [Example 348, [(7S)-2,7-Dimethyl-3-(3,4,5-trifluorophenyl)-5,7-dihydro-4H-pyrazolo[3,4-c]pyridin-6-yl]-[3-(1-fluorocyclopropyl)-1-methyl-pyrazol-4-yl]methanone] | 848 |
| C[C@H]1c2nn(C)c(-c3cc(F)c(F)c(F)c3)c2CCN1C(=O)c1ccnc2c1OCCC2 [Example 568, 3,4-Dihydro-2H-pyrano[3,2-b]pyridin-8-yl-[(7S)-2,7-dimethyl-3-(3,4,5-trifluorophenyl)-5,7-dihydro-4H-pyrazolo[3,4-c]pyridin-6-yl]methanone] | 9.68 |
| Cc1nc2ccc(C(=O)N3CCc4c(nn(C)c4-c4cc(F)c(F)c(F)c4)[C@@H]3C)cc2nc1C [Example 476, (2,3-Dimethylquinoxalin-6-yl)-[(7S)-2,7-dimethyl-3-(3,4,5-trifluorophenyl)-5,7-dihydro-4H-pyrazolo[3,4-c]pyridin-6-yl]methanone] | 25.4 |
| C[C@H]1c2nn(C)c(-c3cccc(OC(F)(F)F)c3)c2CCN1C(=O)c1ccc2ncccc2c1 [Example 501, [(7S)-2,7-Dimethyl-3-[3-(trifluoromethoxy)phenyl]-5,7-dihydro-4H-pyrazolo[3,4-c]pyridin-6-yl]-(6-quinolyl)methanone] | 58.6 |
| C[C@H]1c2nn(C)c(-c3cc(F)c(F)c(F)c3)c2CCN1C(=O)c1cccc2cnccc12 [Example 543, [(7S)-2,7-Dimethyl-3-(3,4,5-trifluorophenyl)-5,7-dihydro-4H-pyrazolo[3,4-c]pyridin-6-yl]-(5-isoquinolyl)methanone] | 4.92 |
| C[C@H]1c2nn(C)c(-c3ccc(C(F)F)nc3)c2CCN1C(=O)c1ccc2ncccc2c1 [Example 521, [(7S)-3-[6-(Difluoromethyl)-3-pyridyl]-2,7-dimethyl-5,7-dihydro-4H-pyrazolo[3,4-c]pyridin-6-yl]-(6-quinolyl)methanone] | 766 |

Same assay, conditions: 300 nM [Glycerol-1,3-3H]-oleyl glycerol, one hour incubation

| Structure (SMILES) | IC50 [nM] |
| --- | --- |
| C[C@H]1c2nn(C)c(-c3cc(F)c(F)c(F)c3)c2CCN1C(=O)c1ccnc2c(F)cccc12 [Example 238, (S)-(2,7-Dimethyl-3-(3,4,5-trifluorophenyl)-2,4,5,7-tetrahydro-6H-pyrazolo[3,4-c]pyridin-6-yl)(8-fluoroquinolin-4-yl)methanone] | 2.69 |
| Cn1nc2c(c1-c1ccccc1)CCN(C(=O)c1nn(C)c3ccccc13)C2 [Example 70, (1-Methyl-1H-indazol-3-yl)(2-methyl-3-phenyl-2,4,5,7-tetrahydro-6H-pyrazolo[3,4-c]pyridin-6-yl)methanone] | 380 |
| C[C@H]1c2nn(C)c(-c3cc(F)c(F)c(F)c3)c2CCN1C(=O)c1cnn(C(C)(C)C)c1C(F)(F)F [Example 199, (S)-(1-(tert-Butyl)-5-(trifluoromethyl)-1H-pyrazol-4-yl)(2,7-dimethyl-3-(3,4,5-trifluorophenyl)-2,4,5,7-tetrahydro-6H-pyrazolo[3,4-c]pyridin-6-yl)methanone] | 172 |
| COc1ccnc(C(=O)N2CCc3c(nn(C)c3-c3cc(F)c(F)c(F)c3)[C@@H]2C)c1C [Example 307, [(7S)-2,7-Dimethyl-3-(3,4,5-trifluorophenyl)-5,7-dihydro-4H-pyrazolo[3,4-c]pyridin-6-yl]-(4-methoxy-3-methyl-2-pyridyl)methanone] | 181 |
| Cn1nc2c(c1C1CC1)CCN(C(=O)c1cccc(Cl)c1Cl)C2 [Example 2, (3-Cyclopropyl-2-methyl-2,4,5,7-tetrahydro-6H-pyrazolo[3,4-c]pyridin-6-yl)(2,3-dichlorophenyl)methanone] | 4600 |
| C[C@H]1c2nn(C)c(-c3cc(F)c(F)c(F)c3)c2CCN1C(=O)c1cnc2c(ccn2C)c1 [Example 226, (S)-(2,7-Dimethyl-3-(3,4,5-trifluorophenyl)-2,4,5,7-tetrahydro-6H-pyrazolo[3,4-c]pyridin-6-yl)(1-methyl-1H-pyrrolo[2,3-b]pyridin-5-yl)methanone] | 16.2 |
| C[C@H]1c2nn(C)c(-c3cc(F)c(F)c(F)c3)c2CCN1C(=O)c1cc(-n2nccn2)ccc1F [Example 285, [(7S)-2,7-Dimethyl-3-(3,4,5-trifluorophenyl)-5,7-dihydro-4H-pyrazolo[3,4-c]pyridin-6-yl]-[2-fluoro-5-(triazol-2-yl)phenyl]methanone] | 18.6 |
| C[C@H]1c2nn(C)c(-c3cc(F)cc(F)c3)c2CCN1C(=O)c1cccc(OCCF)c1 [Example 139, (S)-(3-(3,5-Difluorophenyl)-2,7-dimethyl-2,4,5,7-tetrahydro-6H-pyrazolo[3,4-c]pyridin-6-yl)(3-(2-fluoroethoxy)phenyl)methanone] | 9.8 |
| Cn1nc2c(c1-c1ccccc1)CCN(C(=O)c1ccc3sccc3c1)C2 [Example 39, Benzo[b]thiophen-5-yl(2-methyl-3-phenyl-2,4,5,7-tetrahydro-6H-pyrazolo[3,4-c]pyridin-6-yl)methanone] | 136 |
| COc1cc(C(=O)N2CCc3c(nn(C)c3-c3cc(F)c(F)c(F)c3)[C@@H]2C)ccn1 [Example 312, [(7S)-2,7-Dimethyl-3-(3,4,5-trifluorophenyl)-5,7-dihydro-4H-pyrazolo[3,4-c]pyridin-6-yl]-(2-methoxy-4-pyridyl)methanone] | 81.7 |
| Cn1ncc(C(=O)N2CCc3c(nn(C)c3-c3ccccc3)C2)c1Cl [Example 20, (5-Chloro-1-methyl-1H-pyrazol-4-yl)(2-methyl-3-phenyl-2,4,5,7-tetrahydro-6H-pyrazolo[3,4-c]pyridin-6-yl)methanone] | 2090 |
| C[C@H]1c2nn(C)c(-c3cc(F)c(F)c(F)c3)c2CCN1C(=O)c1cccn2cncc12 [Example 212, (S)-(2,7-Dimethyl-3-(3,4,5-trifluorophenyl)-2,4,5,7-tetrahydro-6H-pyrazolo[3,4-c]pyridin-6-yl)(imidazo[1,5-a]pyridin-8-yl)methanone] | 5.56 |
| Cn1nc2c(c1-c1ccccc1)CCN(C(=O)c1c[nH]c3ccccc13)C2 [Example 44, (1H-Indol-3-yl)(2-methyl-3-phenyl-2,4,5,7-tetrahydro-6H-pyrazolo[3,4-c]pyridin-6-yl)methanone] | 319 |
| C[C@H]1c2nn(C)c(-c3cc(F)c(F)c(F)c3)c2CCN1C(=O)c1cnn2ccncc12 [Example 229, (S)-(2,7-Dimethyl-3-(3,4,5-trifluorophenyl)-2,4,5,7-tetrahydro-6H-pyrazolo[3,4-c]pyridin-6-yl)(pyrazolo[1,5-a]pyrazin-3-yl)methanone] | 40.7 |
| C[C@H]1c2nn(C)c(-c3cc(F)c(F)c(F)c3)c2CCN1C(=O)c1cc(F)ccc1-n1cccn1 [Example 193, (S)-(2,7-Dimethyl-3-(3,4,5-trifluorophenyl)-2,4,5,7-tetrahydro-6H-pyrazolo[3,4-c]pyridin-6-yl)(5-fluoro-2-(1H-pyrazol-1-yl)phenyl)methanone] | 75.5 |
| C[C@H]1c2nn(C)c(-c3cc(F)c(F)c(F)c3)c2CCN1C(=O)c1ccnc2c1ccn2C [Example 225, (S)-(2,7-Dimethyl-3-(3,4,5-trifluorophenyl)-2,4,5,7-tetrahydro-6H-pyrazolo[3,4-c]pyridin-6-yl)(1-methyl-1H-pyrrolo[2,3-b]pyridin-4-yl)methanone] | 0.64 |
| C[C@H]1c2nn(C)c(-c3ccc(C(F)(F)F)o3)c2CCN1C(=O)c1ccc2nccnc2c1 [Example 247, (S)-(2,7-Dimethyl-3-(5-(trifluoromethyl)furan-2-yl)-2,4,5,7-tetrahydro-6H-pyrazolo[3,4-c]pyridin-6-yl)(quinoxalin-6-yl)methanone] | 186 |
| Cc1cccc(C(=O)N2CCc3c(nn(C)c3-c3ccccc3)C2)c1N [Example 17, (2-Amino-3-methylphenyl)(2-methyl-3-phenyl-2,4,5,7-tetrahydro-6H-pyrazolo[3,4-c]pyridin-6-yl)methanone] | 1400 |
| Cc1ccc(-c2c3c(nn2C)[C@H](C)N(C(=O)c2ccc4nccnc4c2)CC3)o1 [Example 107, (S)-(2,7-Dimethyl-3-(5-methylfuran-2-yl)-2,4,5,7-tetrahydro-6H-pyrazolo[3,4-c]pyridin-6-yl)(quinoxalin-6-yl)methanone] | 261 |
| Cc1cnc2cc(C(=O)N3CCc4c(nn(C)c4-c4cc(Cl)cc(Cl)c4)[C@@H]3C)ccc2n1 [Example 176, (S)-(3-(3,5-Dichlorophenyl)-2,7-dimethyl-2,4,5,7-tetrahydro-6H-pyrazolo[3,4-c]pyridin-6-yl)(2-methylquinoxalin-6-yl)methanone] | 8.49 |
| Cn1nc2c(c1-c1cc3ccccc3n1C)CCN(C(=O)c1ccc3ncccc3c1)C2 [Example 105, (2-Methyl-3-(1-methyl-1H-indol-2-yl)-2,4,5,7-tetrahydro-6H-pyrazolo[3,4-c]pyridin-6-yl)(quinolin-6-yl)methanone] | 406 |
